Source: patent US10233328B2, “Sol-gel based matrix” (KØBENHAVNS UNIVERSITET, priority 2013, dated 2019)

Columns and labels:
[1] = pH titration of sensor spots (pKa of the sensor); assay type: physicochemical; settings: dye in ETEOS-GPTMS matrix, Table 2
Procedure: To perform titrations rapidly a set-up employing an epi-fluorescence microscopy equipped with a halogen light source and an Ocean Optics spectrometer for detection. The sensor spot was attached to a homemade holder, which kept the spot in place in a large chamber filled with water, where pH was externally monitored with a pH meter. Alternatively the sensor spot was affixed on the wall of a cuvette and the titration was performed in a Perkin Elmer LS50B, controlling the pH between measurements.
The performance of the sensors is shown as titration curves in FIG. 4. It is clear that a pH-dependent sensor action is achieved for these two sensor systems.

[2] = Leakage of dye from ETEOS-GPTMS matrix into surrounding PBS (physical stability); assay type: physicochemical; settings: for Leaking: fluorescence Intensity (a.u.): PBS pH 7.0 surrounding coated glass slide
Procedure: The photostability was followed by constant illumination of the sensor spot with wavelength selected light from a xenon lamp. The physical stability was tested by immersing the sensor spot in low or high pH aqueous solution, and monitoring the fluorescence from the solution.
Table 2. Leaking of 5(6)-carboxyfluorescein (CF), DMQA-2, DAOTA-1, and 6-stearamido-fluorescein (AF18) from the ETEOS-GPTMS matrix given as fluorescence intensity measured from a PBS solution at pH 7 surrounding a glass slide coated with ETEOS-GPTMS-dye matrix using maximum sized slit widths at the emission and excitation sites of the spectrometer.
All the leakage data is compiled in table 2.

pKa [1]	Leakage from ETEOS-GPTMS matrix (in words) ([2]; PBS pH 7.0)	Leaking: fluorescence Intensity (a.u.) ([2]; leaking period 2 h, half the slit widths used for DMQA-2 and DAOTA-1)	Leaking: fluorescence Intensity (a.u.) ([2]; leaking period 4 d)	Compound
6.5	extensive leakage	>>800 a.u.		5(6)-carboxyfluorescein [CF]
6.5			100	CCCCCCCCCCCCCCCCCC(=O)Nc1ccc2c(c1)C1(OC2=O)c2ccc(O)cc2Oc2cc(O)ccc21 [AFC18, 6-stearamido-fluorescein]
